Molecular target: T1, vanilloid receptor 1 (VR1/TRPV1 receptor) (Homo sapiens, UniProt Q8NER1)
T1 construct: expressed in transfected cells; host or cells: CHO K1 cells (ECACC), stably transfected
Test: VR1/TRPV1 receptor affinity, NADA stimulus (human)
Assay type: cell-based
Settings: N-arachidonoyl dopamine; read-out: Ki (human being) [nM] NADA

T1 sequence (Q8NER1 whole entry): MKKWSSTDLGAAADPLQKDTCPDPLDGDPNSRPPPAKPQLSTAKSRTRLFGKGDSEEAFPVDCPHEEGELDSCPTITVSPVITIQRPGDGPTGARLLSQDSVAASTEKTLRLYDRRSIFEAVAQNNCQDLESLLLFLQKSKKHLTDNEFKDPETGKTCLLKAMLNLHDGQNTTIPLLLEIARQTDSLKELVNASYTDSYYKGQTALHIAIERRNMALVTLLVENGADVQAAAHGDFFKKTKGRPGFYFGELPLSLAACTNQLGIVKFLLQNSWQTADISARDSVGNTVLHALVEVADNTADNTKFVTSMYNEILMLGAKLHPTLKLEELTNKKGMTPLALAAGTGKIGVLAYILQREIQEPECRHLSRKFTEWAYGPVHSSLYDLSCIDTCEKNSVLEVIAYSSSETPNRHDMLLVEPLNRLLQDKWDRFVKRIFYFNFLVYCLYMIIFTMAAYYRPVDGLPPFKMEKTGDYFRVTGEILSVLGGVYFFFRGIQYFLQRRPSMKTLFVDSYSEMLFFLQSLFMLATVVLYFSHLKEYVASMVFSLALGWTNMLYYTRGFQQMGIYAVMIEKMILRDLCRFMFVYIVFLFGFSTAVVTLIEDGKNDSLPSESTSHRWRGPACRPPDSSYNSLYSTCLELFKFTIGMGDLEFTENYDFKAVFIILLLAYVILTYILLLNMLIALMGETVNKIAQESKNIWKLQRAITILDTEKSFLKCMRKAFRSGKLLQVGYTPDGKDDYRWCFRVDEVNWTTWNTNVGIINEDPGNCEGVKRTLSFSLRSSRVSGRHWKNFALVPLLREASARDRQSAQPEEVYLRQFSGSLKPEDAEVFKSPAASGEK

Row | Ki | Compound
1 | 4.99 nM | CCCCCCn1nc(C(C)(C)C)cc1CNC(=O)C(C)c1ccc(NS(C)(=O)=O)c(F)c1 (centres unmarked) [Example 5, N-((3-tert-butyl-1-hexyl-1H-pyrazol-5-yl)methyl)-2-(3-fluoro-4-(methylsulfonamido)phenyl)propanamide]
2 | 0.22 nM | CC(C(=O)NCc1cc(C(C)(C)C)nn1-c1ccc(F)c(Cl)c1)c1ccc(NS(C)(=O)=O)c(F)c1 (centres unmarked) [Example 18, N-((3-tert-butyl-1-(3-chloro-4-fluorophenyl)-1H-pyrazol-5-yl)methyl)-2-(3-fluoro-4-(methylsulfonamido)phenyl)propanamide]
3 | 0.08 nM | CC(C(=O)NCc1cc(C(C)(C)C)nn1-c1cccc(Cl)c1)c1cc(F)c(NS(C)(=O)=O)c(F)c1 (centres unmarked) [Example 29, N-((3-tert-butyl-1-(3-chlorophenyl)-1H-pyrazol-5-yl)methyl)-2-(3,5-difluoro-4-(methylsulfonamido)phenyl)propanamide]

Molecular target: T1, vanilloid receptor 1 (VR1/TRPV1 receptor)
Test: VR1/TRPV1 receptor affinity, capsaicin stimulus (human)
Assay type: cell-based, human being
Settings: @ 5 μM, Tables 8-12, read-out: (f) Ki (human being) [nM] Cap: inhibition (as a percentage)

Row | Compound | inhibition at 5 µM
4 | CC(C(=O)NCc1cc(C(F)(F)F)nn1-c1cccc(Cl)c1)c1ccc(C(=O)N2CCOCC2)c(F)c1 (centres unmarked) [Example E16, N-[[2-(3-Chlorophenyl)-5-(trifluoromethyl)-2H-pyrazol-3-yl]-methyl]-2-[3-fluoro-4-(morpholine-4-carbonyl)-phenyl]-propionamide] | 32%
5 | CC(C(=O)NCc1cc(C(C)(C)C)nn1-c1cccc(Cl)c1)c1ccc(C(=O)N2CCOCC2)c(F)c1 (centres unmarked) [Example E17, N-[[5-tert-Butyl-2-(3-chlorophenyl)-2H-pyrazol-3-yl]-methyl]-2-[3-fluoro-4-(morpholine-4-carbonyl)-phenyl]-propionamide] | 42%

Other lines, results leading:

Row | inhibition at 5 µM | Compound
6 | 38% | CC(C)(C)c1cc(CNC(=O)Nc2ccc(C(=O)N3CCOCC3)c(F)c2)n(-c2cccc(Cl)c2)n1 [Example E14, 1-[[5-tert-Butyl-2-(3-chlorophenyl)-2H-pyrazol-3-yl]-methyl]-3-[3-fluoro-4-(morpholine-4-carbonyl)-phenyl]-urea]
7 | 49% | CN(C(=O)Nc1ccc(C(=O)NC2CCOCC2)c(F)c1)c1cc(C(F)(F)F)nn1-c1cccc(Cl)c1 [Example E22, 4-[[[2-(3-Chlorophenyl)-5-(trifluoromethyl)-2H-pyrazol-3-yl]-methyl-carbamoyl]amino]-2-fluoro-N-tetrahydro-pyran-4-yl-benzamide]
8 | 24.8% | CC(C(=O)N(C)c1cc(C(F)(F)F)nn1-c1cccc(Cl)c1)c1ccc(C(=O)NC2CCOCC2)c(F)c1 (centres unmarked) [Example E23, 4-[1-[[2-(3-Chlorophenyl)-5-(trifluoromethyl)-2H-pyrazol-3-yl]-methyl-carbamoyl]-ethyl]-2-fluoro-N-tetrahydro-pyran-4-yl-benzamide]
9 | 52% | COc1cc(NC(=O)N(C)c2cc(C(C)(C)C)nn2-c2cccc(Cl)c2)ccc1C(=O)O [Example E56, 4-[[[5-tert-Butyl-2-(3-chlorophenyl)-2H-pyrazol-3-yl]-methyl-carbamoyl]amino]-2-methoxy-benzoic acid]

Same assay, conditions: Tables 8-12, read-out: (f) Ki (human being) [nM] Cap

Row | Compound | Ki
10 | O=C(NCc1cc(C(F)(F)F)nn1-c1cccc(Cl)c1)Nc1ccc(C(=O)NCCO)c(F)c1 [Example E18] | 37 nM
11 | CC(C(=O)NCc1cc(C(C)(C)C)nn1-c1cccc(Cl)c1)c1ccc(C(=O)Nc2ccc(F)cc2)c(F)c1 (centres unmarked) [Example E44, 4-[1-[[5-tert-Butyl-2-(3-chlorophenyl)-2H-pyrazol-3-yl]-methyl-carbamoyl]-ethyl-]-2-fluoro-N-(4-fluorophenyl)-benzamide] | 1 nM
12 | CC(C(=O)NCc1cc(C(F)(F)F)nn1-c1cccc(Cl)c1)c1ccc(C(=O)Nc2ccc(F)cc2)c(F)c1 (centres unmarked) [Example E45, 4-[1-[[2-(3-Chlorophenyl)-5-(trifluoromethyl)-2H-pyrazol-3-yl]-methyl-carbamoyl]-ethyl]-2-fluoro-N-(4-fluorophenyl)-benzamide] | 0.3 nM
13 | O=Cc1ccc(NC(=O)NCc2cc(C(F)(F)F)nn2-c2cccc(Cl)c2)cc1F [Example E61, 1-((1-(3-chlorophenyl)-3-(trifluoromethyl)-1H-pyrazol-5-yl)methyl)-3-(3-fluoro-4-formylphenyl)urea] | 23 nM
14 | N-(3-Chlorophenyl)-4-[1-[[2-(3-chlorophenyl)-5-(trifluoromethyl)-2H-pyrazol-3-yl]-methyl-carbamoyl]-ethyl]-benzamide [Example E32] | 48 nM
15 | N-(4-Chlorophenyl)-4-[1-[[2-(3-chlorophenyl)-5-(trifluoromethyl)-2H-pyrazol-3-yl]-methyl-carbamoyl]-ethyl]-2-fluoro-benzamide [Example E46] | 2 nM
16 | N-(4-Chlorophenyl)-4-[1-[[2-(3-chlorophenyl)-5-(trifluoromethyl)-2H-pyrazol-3-yl]-methyl-carbamoyl]-ethyl]-benzamide [Example E33] | 6 nM
17 | N-[[2-(3-Chlorophenyl)-5-cyclopropyl-2H-pyrazol-3-yl]-methyl]-2-[3-fluoro-4-(methanesulfonamido-methyl)-phenyl]-propionamide [Example B4] | 61 nM
18 | N-[[4-[[[5-tert-Butyl-2-(3-chlorophenyl)-2H-pyrazol-3-yl]-methyl-carbamoyl]amino]-2-fluoro-phenyl]-methyl]-acetamide [Example B34] | 15 nM

Molecular target: T1, vanilloid receptor 1 (VR1/TRPV1 receptor)
Test: VR1 inhibition, 45° C. heat stimulus (human)
Assay type: cell-based, human being
Design: key to IC50 (human being) [nM], 45° C.: result in words: AG=agonist; pAG=partial agonist; NE=no effect
Settings: not given

Row | IC50 (human being) [nM], 45° C.: result in words | Compound
19 | AG | CC(C(=O)NCc1cc(C(C)(C)C)nn1-c1cccc(Cl)c1)c1ccc(S(=O)(=O)N(C)C)c(F)c1 (centres unmarked) [Example 56, N-((3-tert-butyl-1-(3-chlorophenyl)-1H-pyrazol-5-yl)methyl)-2-(4-(N,N-dimethylsulfamoyl)-3-fluorophenyl)propanamide]

Same assay, conditions: read-out: IC50 (human being) [nM], 45° C.

Row | IC50 | Compound
20 | 546 nM | Cc1c(C(F)(F)F)nn(-c2cccc(Cl)c2)c1CNC(=O)C(C)c1ccc(CNS(C)(=O)=O)c(F)c1 (centres unmarked) [Example 134, N-((1-(3-chlorophenyl)-4-methyl-3-(trifluoromethyl)-1H-pyrazol-5-yl)methyl)-2-(3-fluoro-4-(methylsulfonamid-methyl)phenyl)propanamide]

— US9624209B2, “Substituted phenylureas and phenylamides as vanilloid receptor ligands” (Gruenenthal GmbH, priority 2009, dated 2017)
